“And” between values parts separate entries of the source, which are not always exact repeats. Identical values can stand only once. Like-named read-outs stand apart in the source and are kept apart here.
Tests used:
[1] = molecular target: coagulation factor VIII (FVIII); design: method as in PMID 3105105, PMID 22471307, PMID 38631156; details: read-out: K D (heme binding to FVIII); cited from earlier work
[2] = molecular target: activated protein C (APC); design: method as in PMID 32705892; details: read-out: K D (heme binding to APC); cited from earlier work
[3] = molecular target: thrombin (Homo sapiens, UniProt P00734); assay: SPR binding of porphyrins to immobilized thrombin; design: human α‐thrombin (HCT‐0020); purchased CellSystems GmbH HCT-0020; details: heterogeneous ligand model
Procedure: SPR experiments were conducted on a Biacore 8K instrument (Cytiva) to investigate the interaction of PZ with heme, as established before.^[ [19] ^, [35] ^, [37] ^, [43] ^] In brief, PZ (10 µg mL^−1) was dissolved in 10 mM sodium acetate buffer (pH 3.5) and immobilized onto a CM5 sensor chip via standard amine coupling, resulting in a final immobilization level of 767 RU. Heme (stock solution in 30 mM NaOH) was further diluted in running buffer (10 mM HEPES, 150 mM NaCl, and 0.05% Tween 20, pH 7.4). The same was performed with zinc (II) protoporphyrin IX and protoporphyrin IX (Frontier Scientific). Binding kinetics were assessed by injecting seven increasing concentrations of heme (187.5–12,000 nM) in a single‐cycle kinetics format at 25 °C and a flow rate of 30 µL min^−1. Data analysis was performed by global fitting using Biacore Insight Evaluation Software, version 3.0.12.15655 (Cytiva).
Figure S7. Heme binds to thrombin. For SPR analysis, thrombin (10 µg/ml) was dissolved in 10 mM sodium acetate buffer (pH 6.0) and immobilized onto a CM5 sensor chip via standard amine coupling, resulting in a final immobilization level of 1826.1 RU. Binding kinetics were assessed by injecting six increasing concentrations of heme (187.5 – 6,000 nM) in a single-cycle kinetics format at 25°C and a flow rate of […]
transient nature of heme binding to thrombin. […]

[4] = molecular target: T1, PZ (Homo sapiens, UniProt P22891); assay: aPTT-based one-stage clotting assay: anticoagulant function of PZ against FXa in the presence of heme; assay type: biochemical; details: PZ 32 nM, FXa 0.1 nM; for impact alone on the procoagulant function of FXa or on clotting of pure plasma (aPTT): controls, heme 0.06 – 20 µM
T1 construct: purchased CellSystems GmbH HCPZ-0220 (PZ); HCXA-0060 (FXa)
T1 sequence (P22891 41-400): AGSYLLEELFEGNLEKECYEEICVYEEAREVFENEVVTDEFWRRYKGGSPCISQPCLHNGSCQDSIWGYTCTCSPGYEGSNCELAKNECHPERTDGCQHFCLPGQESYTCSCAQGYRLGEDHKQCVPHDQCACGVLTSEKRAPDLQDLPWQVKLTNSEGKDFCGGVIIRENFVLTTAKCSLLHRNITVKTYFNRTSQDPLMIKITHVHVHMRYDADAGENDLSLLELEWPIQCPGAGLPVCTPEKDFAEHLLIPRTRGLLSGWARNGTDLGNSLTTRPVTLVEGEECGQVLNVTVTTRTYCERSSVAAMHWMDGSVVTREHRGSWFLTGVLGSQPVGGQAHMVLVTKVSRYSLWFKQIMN
Procedure: To estimate an effect on molecular level, the structure of the PZ–ZPI complex (PDB: 3H5C^[ [42] ^]) was first inspected with heme attached to PZ. The anticoagulant function of PZ was then analyzed in the presence of heme by a one‐stage clotting assay, which was inspired by previous work from us and others.^[ [19] ^, [27] ^] The aPTT‐based assay was performed with the ball coagulometer KC 4 A (Amelung, Lemgo, Germany). PZ (320 nM) was preincubated with different concentrations of heme (0–100 µM) for 30 min in 1x PBS, pH 7.4. Afterward, 50 µL of the PZ–heme mixture was incubated with 50 µL of Actin FSL, 50 µl CaCl2 (30 mM), and 50 µL FXa (0.5 nM) at 37 °C for 3 min. Finally, 50 µL citrated pooled plasma was added and the clotting time was automatically recorded. The following mixtures served as controls: 1) 50 µL PBS‐heme + 50 µL Actin FSL + 50 µL CaCl2 + 50 µL FXa + 50 µL citrated plasma, 2) 50 µL PBS‐heme + 50 µL Actin FSL + 50 µL CaCl2 + 50 µL PBS + 50 µL citrated plasma, 3) 50 µL PZ–heme + 50 µL Actin FSL + 50 µL CaCl2 + 50 µL PBS + 50 µL citrated plasma, 4) 50 µL PZ‐PBS + 50 µL Actin FSL + 50 µL CaCl2 + 50 µL FXa + 50 µL citrated plasma, 5) 50 µL PZ‐PBS + 50 µL Actin FSL + 50 µL CaCl2 + 50 µL PBS + 50 µL citrated plasma, 6) 50 µL PBS + 50 µL Actin FSL + 50 µL CaCl2 + 50 µL FXa + 50 µL citrated plasma, and 7) 50 µL PBS + 50 µL Actin FSL + 50 µL CaCl2 + 50 µL PBS + 50 µL citrated plasma. Final concentrations in the approach were 6 mM CaCl2, 0–20 µM heme, 32 nM and PZ, 0.1 nM FXa. Data were normalized against the clotting time of citrated plasma only (control (7)) and evaluated as the mean of triplicates. The IC50 was determined by fitting the curves with nonlinear regression (GraphPad Prism, version 10.5.0).

[5] = molecular target: fibrinogen; design: method as in PMID 29322134, PMID 27229173; details: read-out: K D (heme binding to fibrinogen); cited from earlier work
[6] = Substrate control of the chromogenic assay without thrombin; assay type: biochemical; details: no thrombin; heme 1 – 1000 nM, PZ 10 nM; thrombin = 100 %
Procedure: Herein, an earlier established chromogenic thrombin amidolytic activity assay system was thus used, inspired by Hogg and Stenflo.^[ [19] ^, [28] ^] PZ (final concentration: 10 nM) was first incubated for 30 min with different heme concentrations (final concentrations: 1–1000 nM). Afterward, the heme–PZ mixture was incubated with thrombin for 10 min and the PZ–thrombin mixture (50 µL; final thrombin concentration: 15 nM) was transferred onto a 96‐well plate (Greiner Bio‐One GmbH). Finally, 5 µL of the substrate solution (H‐D‐Phe‐Pip‐Arg‐pNA x 2 HCl (S‐2238); final concentration: 273 µM) was added. Immediately, kinetic measurements at 405 nm were started, using an Infinite 200 Pro spectrophotometer. Heme only, thrombin only, and PZ‐heme only served as controls. For evaluation, the thrombin activity was determined as the change of absorbance per second and always normalized against the basal thrombin activity without PZ. Data were analyzed as the mean of triplicate and the IC50 was calculated by nonlinear regression (GraphPad Prism, version 10.5.0). […]
thrombinheme (0 nM)heme (1 nM) thrombin heme (3.16 nM)heme (10 nM)heme (31.6 nM)heme (100 nM)heme (316 nM)heme (1000 nM)PZ+heme (0 nM)PZ+heme (1 nM) PZ+heme (3.16 nM)PZ+heme (10 nM)PZ+heme (31.6 nM)PZ+heme (100 nM)PZ+heme (316 nM)PZ+heme (1000 nM)
Figure S5. […]

Kd ([3]; read-out: KD1 (porphyrin binding to thrombin)): 0.0929 µM
Kd ([3]; read-out: KD2 (porphyrin binding to thrombin)): 0.709 µM
heme level at which the procoagulant function of FXa was restored [4]: ≥ 2 µM
IC50 ([4]; heme 0.06–20 µM, citrated pooled plasma, read-out: IC50 (inhibition of the anticoagulant function of PZ against FXa)): 0.83 ± 0.21 µM
impact alone on the procoagulant function of FXa or on clotting of pure plasma (aPTT) [4]: did not exert any significant impact
impact alone on the procoagulant function of FXa or on clotting of pure plasma (aPTT) ([4]; listed as Heme): did neither affect
Substance: Hemin [heme]
Kd [1]: 0.002 to 0.013 µM
Kd [2]: ~0.4 µM
Kd [5]: ~3 µM and ~3.3 µM
relative amidolytic activity toward substrate S-2238 [6]: ~ 0%
